Data: patent US10918641B2, “Use of MTAP inhibitors for the treatment of lung disease” (The University of North Carolina at Chapel Hill, priority 2015, dated 2021)
Converted amounts (≈) assume the structure as drawn. “Also recorded” adds a separate entry of the source.

Assays:
[1] = Stability of MTDIA in drinking water (MS method); type: physicochemical; details: three days, room temperature
Scnn1b-Tg mice [2] = test: Single 15 mg/kg oral gavage dose in WT and Scnn1b-Tg mice
[3] = Acute and seven-day repeat-dose toxicity by gavage in CD-1 mice
Experimental: In CD-1 mice, a single dose of MTDIA was administered by gavage to establish acute toxicity (300, 600 and 1000 mg/kg), or once daily for seven consecutive days (0, 600 and 1000 mg/kg/day) to determine repeat-dose toxicity. Mice were monitored for abnormalities, survival rates, histopathological changes (heart, lung, liver, kidney, spleen, small intestine and stomach were evaluated histopathologically by a board certified pathologist), clinical chemistry and complete blood count (CBC) analysis.

MTA metabolism at MTAP [4] = tested on: MTA metabolism at MTAP
[5] = MTDIA plasma pharmacokinetics after oral or i.p. dose in CD-1 mice; details: in words
MTA metabolism at MTAP [6] = test: MTDIA in drinking water of WT mice, serum and BALF MTA; type: in vivo
Experimental: The effect of a range of MTDIA concentrations in drinking water on serum and BALF MTA concentrations in WT mice is explored using protocols similar to those described above, except that MTDIA is delivered in drinking water rather than oral gavage. In preliminary experiments, we calculated that 75 μg/mL of MTDIA in drinking water would deliver a dose of 15 mg/kg per day that we utilized in our single dose experiments (based on estimates of a 25 g mouse drinking […] water per day), and we examined WT mice treated with this dose as well as half of this dose (37.5 μg/mL) relative to mice drinking untreated water. […] Once this dose is established, this dose is tested over three days in our Scnn1b-Tg and CF/Scnn1b-Tg mice to ensure that we observe similar effects in these models.

[7] = Metabolic stability in human hepatocytes and microsomes
[8] = tested on: protein receptor and kinase panels; test: Protein receptor and kinase panels (off-target effects); type: binding
physchem = details: PBS, aqueous buffer
Scnn1b-Tg mice [9] = test: 15 mg/kg oral gavage once daily for three days in Scnn1b-Tg mice; type: in vivo, mouse
Experimental: Therefore, we repeated the above study in Scnn1b-Tg mice using 15 mg/kg MTDIA by oral gavage once daily for three days. With the longer treatment, we observed increases in serum (FIG. 8A) and BALF (FIG. 8B) MTA concentrations in treated mice relative to vehicle treated animals (n=13 and 11, respectively), similar to the changes seen with the single dose experiments.
Similar differences were observed when BALF inflammatory cells were analyzed as cell differentials rather than cell counts. These findings provide compelling evidence that MTDIA can act as an anti-inflammatory drug in a chronic airways disease model.

human MTAP = molecular target: T1, human MTAP (Homo sapiens, UniProt Q13126); test: Inhibition of human MTAP by transition state analogue (Ki*); type: biochemical
T1 sequence (Q13126 1-283): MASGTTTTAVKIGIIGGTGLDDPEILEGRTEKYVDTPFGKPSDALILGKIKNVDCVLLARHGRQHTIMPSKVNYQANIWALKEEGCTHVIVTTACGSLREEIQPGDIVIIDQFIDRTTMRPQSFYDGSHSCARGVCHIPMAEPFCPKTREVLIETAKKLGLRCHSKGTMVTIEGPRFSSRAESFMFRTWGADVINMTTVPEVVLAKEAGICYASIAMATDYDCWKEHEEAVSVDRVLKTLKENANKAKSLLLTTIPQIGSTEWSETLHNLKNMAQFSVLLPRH

MTAP = MTAP (Mus musculus, UniProt Q9CQ65)
MTA metabolism at MTAP [10] = tested on: MTA metabolism at MTAP; remark: listed apart in the source
Experimental: A) Serum MTA concentrations after single oral dose of various concentrations of MTDIA (range 0.6-150 mg/kg, numbers on graph represent dose in mg/kg MTDIA) as well as a 10 mg/kg dose IV.

[11] = Toxicity in in vitro (2D and 3D culture) and in vivo studies to date; details: all in vitro (2D and 3D culture) and in vivo studies to date
[12] = 15 mg/kg once daily, three days

Chain of MTAP (Q9CQ65 whole entry): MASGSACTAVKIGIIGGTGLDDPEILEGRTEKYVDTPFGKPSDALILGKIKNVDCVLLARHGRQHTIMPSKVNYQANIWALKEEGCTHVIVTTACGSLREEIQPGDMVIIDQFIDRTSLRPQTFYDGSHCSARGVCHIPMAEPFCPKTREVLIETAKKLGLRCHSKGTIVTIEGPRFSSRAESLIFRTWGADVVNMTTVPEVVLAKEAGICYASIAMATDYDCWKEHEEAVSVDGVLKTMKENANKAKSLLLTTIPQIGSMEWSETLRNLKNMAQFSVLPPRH

For `CSC[C@H]1CN(Cc2c[nH]c3c(N)ncnc23)C[C@@H]1O` [MTDIA, (3R,4S)-1-[(9-deazaadenin-9-yl)methyl]-3-hydroxy-4-(methylthiomethyl)pyrrolidine], the “Stability in drinking water” value [1] was “stable”, the BALF inflammatory markers (Scnn1b-Tg mice [2]; after a single dose) was “did not observe any changes” and the “Serum MTA concentrations” value (Scnn1b-Tg mice [2]; single 15 mg/kg oral gavage, 24 hours, WT and Scnn1b-Tg mice, 15 mg/kg) was “increase; also recorded: increases serum MTA”. For the same compound, the “LOAEL (Lowest-Observed-Adverse-Effect level)” value ([3]; CD-1 mice, gavage) was 600 mg/kg/day, the Histopathological findings ([3]; mouse, in vivo) was “No histopathological findings were detected” and the “Urinary MTA” value (MTA metabolism at MTAP [4]; 15 mg/kg, mice) was “approximately 30 μM”. The “Increase of plasma MTA levels” value (MTA metabolism at MTAP [4]; 15 mg/kg, mice, after 30 min) was > 100 fold, the “Decrease in polyamine concentrations” value (MTA metabolism at MTAP [4]; an oral or i.p. dose) was ~2 fold and the “MTA accumulation in plasma over baseline levels” value (MTA metabolism at MTAP [4]; an oral or i.p. dose) was > 100 fold. For the same compound, the Oral availability [5] was “orally available”, the “Serum MTA concentrations vs. control” value (MTA metabolism at MTAP [6]; 37.5 μg/mL in drinking water) was “more than two orders of magnitude higher than control; also recorded: orders of magnitude increases” and the “Serum MTA concentrations vs. control” value (MTA metabolism at MTAP [6]; 75 μg/mL in drinking water) was “more than two orders of magnitude higher than control; also recorded: orders of magnitude increases”. For the same compound, the “BALF MTA vs. control” value (MTA metabolism at MTAP [6]; 37.5 or 75 μg/mL in drinking water) was “less dramatic increases; also recorded: increased BALF MTA concentrations”, the Time metabolically stable ([7]; in vitro, human hepatocytes and microsomes) was “over 4 hr” and the “Metabolic stability in microsomes and hepatocytes” value ([7]; in words) was “metabolically stable”. For the same compound, the “Off-target effects in protein receptor and kinase panels” value [8] was “minimal off-target effects”, the solubility (physchem) was 156 mM (≈ 45.8 mg/mL) and the “BALF MTA concentrations vs. vehicle” value (Scnn1b-Tg mice [9]; [12]) was “increases”. The “Free concentrations of spermine and spermidine in serum or BALF” value (Scnn1b-Tg mice [9]; [12]) was “did not observe large changes; also recorded: minimal changes”, the “Serum MTA concentrations vs. vehicle” value (Scnn1b-Tg mice [9]; [12]) was “increases; also recorded: increased serum MTA concentrations” and the “Bronchus-associated lymphoid tissue (BALT), lung histology” value (Scnn1b-Tg mice [9]; three days of MTDIA treatment) was “meaningfully reduced; also recorded: greatly reduced”. For the same compound, the “Enlarged activated macrophage phenotype (BALF cytospins)” value (Scnn1b-Tg mice [9]; three days of MTDIA treatment) was “appears to be reduced; also recorded: resolve to a more WT appearance”, the “BALF macrophage cell counts” value (Scnn1b-Tg mice [9]; three days oral MTDIA) was “corresponding increase” and the “BALF eosinophil cell count” value (Scnn1b-Tg mice [9]; three days oral MTDIA, vehicle 14.2+13.5, p<0.001) was 2.2+3.2 ×10^3 cells/ml. For the same compound, the “BALF neutrophil cell count” value (Scnn1b-Tg mice [9]; three days oral MTDIA, vehicle 32.0+16.9, p<0.001) was 11.5+8.2 ×10^3 cells/ml, the Ki (human MTAP) was 0.086 nM and the “Affinity for MTAP” value (human MTAP; in words) was “picomolar affinity”. The “Duration of inhibition of MTAP activity in vivo” value (MTAP; an oral or i.p. dose) was > 24 h, the “Time for MTAP catalytic activity in mouse serum to return to normal” value (MTAP; single oral dose 15 mg/kg) was ≤ 36 h and the “Time for which catalytic activity of MTAP in mouse serum is completely inhibited” value (MTAP; single oral dose 15 mg/kg) was 24 h. For the same compound, the “Oral dose yielding maximal response in serum MTA concentrations” value (MTA metabolism at MTAP [10]; previous experiments, as stated in Example 7) was 15 mg/kg, the “Oral dose with maximum effect on serum MTA concentrations” value (MTA metabolism at MTAP [10]; single oral dose range 0.6-150 mg/kg (FIG. 7A legend)) was 30 mg/kg and the Toxicity observed [11] was “No significant toxicity”.
